Each structure is given as a SMILES string. Some results are limits rather than exact numbers.

The target of series [1] is T1, CMP-N-acetylneuraminate-beta-1,4-galactoside alpha-2,3-sialyltransferase (Rattus norvegicus, UniProt Q02734).
T1 sequence (Q02734 whole entry): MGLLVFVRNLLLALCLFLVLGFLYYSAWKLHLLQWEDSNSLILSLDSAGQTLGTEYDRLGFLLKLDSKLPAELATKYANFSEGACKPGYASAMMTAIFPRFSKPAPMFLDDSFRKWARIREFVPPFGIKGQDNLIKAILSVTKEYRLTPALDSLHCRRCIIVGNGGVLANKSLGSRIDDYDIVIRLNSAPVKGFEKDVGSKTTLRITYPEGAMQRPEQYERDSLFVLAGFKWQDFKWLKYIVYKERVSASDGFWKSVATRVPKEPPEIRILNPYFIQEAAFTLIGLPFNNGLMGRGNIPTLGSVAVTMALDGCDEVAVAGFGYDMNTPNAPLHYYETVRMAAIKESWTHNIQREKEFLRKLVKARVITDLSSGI
Nature of the series: Inhibition of rat alpha-2,3-N-ST3GALIII assessed as reduction in sialylated-product formation using Gal-beta1-4Glc and CMP-NeuSAc incubated for 1.5 hrs by reverse-phase HPLC analysis.

In series [2] the target is T2, Beta-galactoside alpha-2,6-sialyltransferase 1 (Homo sapiens, UniProt P15907).
T2 sequence (P15907 whole entry): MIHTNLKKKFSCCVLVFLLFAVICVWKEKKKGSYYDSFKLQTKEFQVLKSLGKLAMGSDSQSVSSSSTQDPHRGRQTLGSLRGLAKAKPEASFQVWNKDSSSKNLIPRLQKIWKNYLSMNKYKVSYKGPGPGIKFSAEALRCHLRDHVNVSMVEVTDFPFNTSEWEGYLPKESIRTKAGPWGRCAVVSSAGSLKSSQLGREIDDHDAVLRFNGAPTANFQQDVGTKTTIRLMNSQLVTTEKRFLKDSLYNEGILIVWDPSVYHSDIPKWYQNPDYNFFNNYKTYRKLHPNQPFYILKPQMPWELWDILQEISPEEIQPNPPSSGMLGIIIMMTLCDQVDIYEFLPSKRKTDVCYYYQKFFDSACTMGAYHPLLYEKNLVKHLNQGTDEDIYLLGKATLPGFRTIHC
Nature of the series: Inhibition of human alpha-2,6-ST6GAL1 assessed as reduction in sialylated-product formation using Gal-beta1-4GlcNac and CMP-NeuSAc incubated for 15 mins by reverse-phase HPLC analysis.

Series [3] deals with T3, Sialyltransferase ST3Gal-I (Rattus norvegicus) (UniProt Q6H8N0).
T3 sequence (whole entry): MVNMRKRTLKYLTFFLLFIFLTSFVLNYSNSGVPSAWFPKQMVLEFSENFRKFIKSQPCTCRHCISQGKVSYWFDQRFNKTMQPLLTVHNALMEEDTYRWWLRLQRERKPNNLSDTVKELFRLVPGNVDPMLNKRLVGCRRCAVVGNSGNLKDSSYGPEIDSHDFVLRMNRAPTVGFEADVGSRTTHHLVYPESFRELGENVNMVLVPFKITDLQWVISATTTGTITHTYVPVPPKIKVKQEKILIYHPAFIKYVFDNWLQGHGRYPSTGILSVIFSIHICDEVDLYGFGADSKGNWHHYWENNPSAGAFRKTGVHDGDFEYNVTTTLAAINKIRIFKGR
Nature of the series: Inhibition of rat alpha-2,3-O-ST3GALI assessed as reduction in sialylated-product formation at 500 uM using p-nitrophenyl T-antigen and CMP-NeuSAc incubated for 15 mins by reverse-phase HPLC analysis relative to control.

The species named for series [4] is Rattus norvegicus. Description: Selectivity ratio of inhibition of rat alpha-2,3-O-ST3GALI at 500 uM to IC50 for inhibition of rat alpha-2,3-N-ST3GALIII.
A short description of series [5]: Selectivity ratio of IC50 for of inhibition of rat alpha-2,3-O-ST3GALI to IC50 for inhibition of human alpha-2,6-ST6GAL1.
The nature of series [6]: Toxicity in human MDA-MB-231 cells assessed as cell survival at >60 uM relative to control. It is filed as cell-based. Particulars: read-out: Survival.
Series [7] deals with T4, Beta-galactoside alpha-2,6-sialyltransferase 1 (Homo sapiens) (UniProt P15907).
T4 sequence (whole entry): T2 sequence (P15907 whole entry)
Nature of the series: Inhibition of human alpha-2,6-ST6GAL1 assessed as reduction in sialylated-product formation at 100 uM using Gal-beta1-4GlcNac and CMP-NeuSAc incubated for 15 mins by reverse-phase HPLC analysis relative to control.

Series [8] concerns the target T3, Sialyltransferase ST3Gal-I (Rattus norvegicus). Description: Inhibition of rat alpha-2,3-O-ST3GALI assessed as reduction in sialylated-product formation at 1 mM using p-nitrophenyl T-antigen and CMP-NeuSAc incubated for 15 mins by reverse-phase HPLC analysis relative to control.
The nature of series [9]: Apparent permeability at pH 7.4 by PAMPA. In general terms: PAMPA measures passive passage across an artificial lipid membrane.
Series [10] is filed under the species Rattus norvegicus. Description: Selectivity ratio of inhibition of rat alpha-2,3-O-ST3GALI at 1000 uM to IC50 for inhibition of rat alpha-2,3-N-ST3GALIII.
Series [11] concerns the target T5, Sialyltransferase ST3Gal-I (Rattus norvegicus, UniProt Q6H8N0).
T5 sequence (Q6H8N0 whole entry): T3 sequence (whole entry)
Nature of the series: Inhibition of rat alpha-2,3-O-ST3GALI assessed as reduction in sialylated-product formation using p-nitrophenyl T-antigen and CMP-NeuSAc incubated for 15 mins by reverse-phase HPLC analysis.

Series [12] is filed under the species Rattus norvegicus. Nature of the series: Selectivity ratio of IC50 for of inhibition of rat alpha-2,3-O-ST3GALI to IC50 for inhibition of rat alpha-2,3-N-ST3GALIII.

Broadly, the IC50 is the point on the concentration scale where inhibition reaches its midpoint. One may read the inhibition as how much of the control response was suppressed. Regarding `C[C@H](CCC(=O)OCCOCCOCCOCCOCCN=[N+]=[N-])[C@H]1CC[C@H]2[C@@H]3CC[C@@H]4C[C@H](OC(=O)[C@H](CC(=O)O)Nc5ccc([N+](=O)[O-])c6nonc56)CC[C@]4(C)[C@H]3CC[C@]12C`, the half-maximal inhibitory concentration (IC50) in series [1] turned out to be 1 µM; in series [2], 5 µM. In [3], the inhibition turned out to be 0%. Also, the Selectivity ratio in [4] is above 516. Besides, the Ratio IC50 in [5] was above 99. Moreover, the viability in series [6] is above 90%.
With `C[C@H](CCC(=O)OCCOCCOCCOCCN=[N+]=[N-])[C@H]1CC[C@H]2[C@@H]3CC[C@@H]4C[C@H](OC(=O)[C@H](CC(=O)O)NC(=O)c5ccc([N+](=O)[O-])cc5)CC[C@]4(C)[C@H]3CC[C@]12C`, the IC50 in series [2] was 5.7 µM. In addition, the inhibition in series [3] came out at 0%. The Ratio IC50 in series [5] is above 88. In [6], the viability was above 90%.
Regarding `C[C@H](CCC(=O)OCCN=[N+]=[N-])[C@H]1CC[C@H]2[C@@H]3CC[C@@H]4C[C@H](OC(=O)[C@H](CC(=O)O)Nc5ccc([N+](=O)[O-])c6nonc56)CC[C@]4(C)[C@H]3CC[C@]12C`, the figures for the IC50 in [1] and in series [2] were 0.8 µM and 4.2 µM, respectively. Moreover, in [3], the inhibition came to 0%. Also, the Selectivity ratio in series [4] was above 625. In series [5], the Ratio IC50 was above 119. Besides, the viability in series [6] was above 90%.
Regarding `COc1ccc2c(CC(=O)N[C@@H](CC(=O)O)C(=O)O[C@@H]3CC[C@@]4(C)[C@H](CC[C@@H]5[C@@H]4CC[C@]4(C)[C@@H]([C@H](C)CCC(=O)OCCOCCOCCN=[N+]=[N-])CC[C@@H]54)C3)cc(=O)oc2c1`, the IC50 in [2] came to 4.6 µM. Besides, the inhibition in series [3] stood at 0%. Besides, the Ratio IC50 in series [5] is above 109. Moreover, in [6], the viability was above 90%.
On the same counts, the results for `C[C@H](CCC(=O)OCCOCCN=[N+]=[N-])[C@H]1CC[C@H]2[C@@H]3CC[C@@H]4C[C@H](OC(=O)[C@H](CC(=O)O)NC(=O)c5ccc([N+](=O)[O-])cc5)CC[C@]4(C)[C@H]3CC[C@]12C` are 6.7 µM, 0%, above 74 and above 90%.
For the compound `C[C@@H]1O[C@@H](O[C@H]2[C@H](O[C@H]3[C@H](O[C@H]4CC[C@@]5(C)[C@@H](CC[C@]6(C)[C@@H]5CC=C5[C@@H]7CC(C)(C)C[C@@H](O)[C@]7(C)CC[C@]56C)[C@@]4(C)CO)O[C@H](C(=O)O)[C@@H](O)[C@@H]3O)O[C@H](CO)[C@H](O)[C@@H]2O)[C@H](O)[C@H](O)[C@H]1O`, the values for the inhibition in series [7], in [3] and in series [8] were 68%, 59% and 83%, respectively.
For `C[C@H](CCC(=O)OCCN=[N+]=[N-])[C@H]1CC[C@H]2[C@@H]3CC[C@@H]4C[C@H](OC(=O)[C@H](CC(=O)O)NC(=O)c5ccc([N+](=O)[O-])cc5)CC[C@]4(C)[C@H]3CC[C@]12C`, the IC50 in series [2] was found to be 7.2 µM. Besides, the inhibition in series [3] was 0%. The Ratio IC50 in series [5] is above 70. In addition, the viability in [6] is above 90%.
The term Papp denotes the rate of passage across a membrane or cell layer, normalised by area and donor concentration. `Cn1c(=O)c2[nH]cnc2n(C)c1=O.O` [THEOPHYLLINE]: the Papp in [9] was 1.4 ×10⁻⁶ cm/s.
Regarding `C[C@H](CCC(=O)NCC(=O)O)[C@H]1CC[C@H]2[C@@H]3CC[C@@H]4C[C@H](O)CC[C@]4(C)[C@H]3CC[C@]12C`, the inhibition amounted to 9% in series [7], 15% in series [3] and 41% in [8].
In the case of `C[C@H](CCC(=O)OCCOCCN=[N+]=[N-])[C@H]1CC[C@H]2[C@@H]3CC[C@@H]4C[C@H](OC(=O)[C@H](CC(=O)O)Nc5ccc([N+](=O)[O-])c6nonc56)CC[C@]4(C)[C@H]3CC[C@]12C`, the 50% inhibitory concentration (IC50) was determined as 0.77 µM in series [1] and 4.33 µM in [2]. In addition, the inhibition in series [3] came to 0%; in [8], 74%. Besides, the Selectivity ratio in series [4] was above 649; in series [10], below 1300. Further, in series [5], the Ratio IC50 was above 116. In addition, the viability in series [6] was above 90%.
On to `COc1ccc2c(CC(=O)N[C@@H](CC(=O)O)C(=O)O[C@@H]3CC[C@@]4(C)[C@H](CC[C@@H]5[C@@H]4CC[C@]4(C)[C@@H]([C@H](C)CCC(=O)OCCN=[N+]=[N-])CC[C@@H]54)C3)cc(=O)oc2c1`, for which the concentration for half-maximal inhibition (IC50) in [2] was 5.6 µM. Also, in [3], the inhibition was 0%. Moreover, in [5], the Ratio IC50 is above 89. In addition, the viability in series [6] is above 90%.
On the same counts, the results for `COc1ccc2c(CC(=O)N[C@@H](CC(=O)O)C(=O)O[C@@H]3CC[C@@]4(C)[C@H](CC[C@@H]5[C@@H]4CC[C@]4(C)[C@@H]([C@H](C)CCC(=O)OCCOCCOCCOCCOCCN=[N+]=[N-])CC[C@@H]54)C3)cc(=O)oc2c1` are 5.7 µM, 0%, above 88 and above 90%.
The like results for `COc1ccc2c(CC(=O)N[C@@H](CC(=O)O)C(=O)O[C@@H]3CC[C@@]4(C)[C@H](CC[C@@H]5[C@@H]4CC[C@]4(C)[C@@H]([C@H](C)CCC(=O)OCCOCCN=[N+]=[N-])CC[C@@H]54)C3)cc(=O)oc2c1` were, in that order, 5.1 µM, 0%, above 97 and above 90%.
The like results for `C[C@H](CCC(=O)OCCOCCOCCN=[N+]=[N-])[C@H]1CC[C@H]2[C@@H]3CC[C@@H]4C[C@H](OC(=O)[C@H](CC(=O)O)NC(=O)c5ccc([N+](=O)[O-])cc5)CC[C@]4(C)[C@H]3CC[C@]12C` were, in that order, 5.4 µM, 0%, above 94 and above 90%.
With `COc1ccc2c(CC(=O)N[C@@H](CC(=O)O)C(=O)O[C@@H]3CC[C@@]4(C)[C@H](CC[C@@H]5[C@@H]4CC[C@]4(C)[C@@H]([C@H](C)CCC(=O)OCCOCCOCCOCCN=[N+]=[N-])CC[C@@H]54)C3)cc(=O)oc2c1`, in series [2], the IC50 was found to be 5 µM. For the same compound, in [3], the inhibition turned out to be 0%. The Ratio IC50 in [5] is above 101. For the same compound, the viability in [6] is above 90%.
In the case of `C[C@H](CCC(=O)OCCOCCOCCOCCOCCN=[N+]=[N-])[C@H]1CC[C@H]2[C@@H]3CC[C@@H]4C[C@H](OC(=O)[C@H](CC(=O)O)NC(=O)c5ccc([N+](=O)[O-])cc5)CC[C@]4(C)[C@H]3CC[C@]12C`, in series [2], the IC50 is 7.5 µM. Further, the inhibition in series [3] came out at 0%. Also, in [5], the Ratio IC50 was above 67. Moreover, the viability in [6] was above 90%.
Regarding `C[C@H](CCC(=O)O)[C@H]1CC[C@H]2[C@@H]3CC[C@@H]4C[C@H](OC(=O)[C@H](CCC(=O)O)Nc5ccc([N+](=O)[O-])c6nonc56)CC[C@]4(C)[C@H]3CC[C@]12C`, the IC50 in series [1] came to 0.9 µM; in series [11], 13.2 µM. The Ratio IC50 in series [12] is 15; in series [5] it was 9.

These data come from ChEMBL document CHEMBL4765481, “Sialyltransferase Inhibitors Suppress Breast Cancer Metastasis” (J Med Chem, 2021).
